Results: publication PMC9400670, “Establishing the selective phospholipid membrane coordination, permeation and lysis properties for a series of ‘druggable’ supramolecular self-associating antimicrobial amphiphiles” (Chemical Science, 2022)

Legend:
[1] = Mouse plasma protein binding (rapid equilibrium dialysis) with plasma stability; assay type: in vitro ADME; conditions: for recovery at 4 h, 2 µM: mouse plasma, read-out: Recovery (PPB assay); for fraction unbound at 4 h, 2 µM: PPB
Experimental: page 7: Section 4: DMPK Methods and Further Discussion Materials used for DMPK studies: Sprague Dawley rat liver microsomes (male, 771 donors, Lot 1910100), CD-1 mouse liver microsomes (male, 6424 donors, Lot 2010017) and human liver microsomes (mixed gender,50 donors, Lot 1810003) were purchased from Sekisui Xenotech (Kansas City, USA). Microsomal incubations: SSA 1-6 and 10 (final concentration 1 µM) were pre-incubated for 10 min in mouse, rat, or human liver microsomes (final concentration 0.5 mg/mL prepared in 100 mM potassium phosphate buffered saline (PBS)) at 37°C. The reaction was initiated with the addition of the cofactor, NADPH-generating system. The NADPH-generating system consisted of NADP (1.3 mM, pH 7.4), glucose-6-phosphate (3.3 mM, pH 7.4), glucose-6-phosphate dehydrogenase (0.4 unit/mL) and MgCl2 (3.3 mM). The reaction was allowed to proceed for 45 min. At 0, 5, 10, 15, 30, and 45 min aliquots were sampled and quenched in ice cold acetonitrile with internal standard. Incubations were conducted in singlicate; control incubations (substituting PBS for NADPH) were conducted simultaneously. All control incubations were within acceptance criteria in mouse, rat, and human microsomes confirming stability was acceptable over 45 minutes in the absence of co-factor. Protein Binding studies: The fraction unbound in mouse plasma (BioIVT, Frankfurt Am Main, Germany) of SSA 1-6 and 10 were measured using a Rapid Equilibrium Dialysis device (Thermo Fisher Scientific, Loughborough, UK). Mouse plasma containing 2 µM of SSA 1-6 and 10 were dialysed against 100 mM PBS for 4h at 37°C at 5% CO2. Samples were removed, matrix matched and quenched with acetonitrile containing internal standard; further processing is described in: Sample preparation and liquid chromatography-mass spectrometry analysis. Caco-2 Permeability studies: The permeability assay for SSA 1-6 and 10 was performed at Cyprotex Discovery Limited (Macclesfield, UK) and analysed at Cancer Research Horizons. SSA 1-6 and 10 were incubated at a final concentration of 10 uM with human intestinal Caco-2 cells at 37°C, 5% CO2 with a relative humidity of 95%. After 120 minutes the apical compartment inserts and the companion plates were separated, and the apical and basolateral samples were transferred. Incubations were conducted in duplicate and the fluorescent membrane integrity marker; Lucifer Yellow was co- incubated with the SSA compounds at the start of the assay. Compounds of known permeability were used as controls and were within acceptance criteria. Further processing is described in: Sample preparation and liquid chromatography-mass spectrometry analysis. Sample preparation and liquid chromatography-mass spectrometry analysis: All samples were centrifuged at 3500 rpm at 4°C for 10 min to precipitate protein and enable sampling of supernatant prior to appropriate dilution for liquid chromatography-mass spectrometry (LC-MS/MS analysis). For the purpose of CLINT determination, samples were analysed using a Waters I-Class ultra-high- performance liquid chromatography (UHPLC) system coupled to a Waters Xevo TQ-XS mass spectrometer (Waters, Elstree, UK). Separation of analytes was achieved using an Accucore Vanquish C18+ column (1.5 µm, 50 x 2.1 mm) (Thermo Fisher Scientific, Hemel Hempstead) at a temperature of 40°C and a binary mobile phase gradient at a flow rate of 0.4 mL/min. Initial LC conditions comprised 95% solvent A (0.1% formic acid + 5 mM ammonium acetate in water), 5% solvent B (0.1% formic acid + 5 mM ammonium acetate in acetonitrile); this was ramped to 90% B at 5 min, and then immediately returned to initial conditions and held for the remaining 0.5 min of the method. Sample analysis was by electrospray ionisation combined with multiple reaction monitoring in negative ion mode. […]

[2] = test system: E. coli DH10B; assay: MIC50 determination and initial screening from OD600 growth curves, E. coli DH10B; assay type: cell-based, Escherichia coli; conditions: for MIC50 / inhibition at 3300 µM: Escherichia coli, 15 h; for MIC50: E. coli DH10B; for inhibition at 3300 µM: DH10B, 3.3 mM, read-out: initial antimicrobial screening, inhibition of growth, E. coli
From the text: The antimicrobial activity of SSAs 1–14 was established against both a model Gram-positive, clinically relevant methicillin resistant Staphylococcus aureus (MRSA), and a model Gram-negative, E. coli bacteria, Table 1. Here MIC50 values are given in mM to enable the derivation of molecular structure: antimicrobial efficacy: physical property relationships. […]
Data were acquired in endpoint mode. […]
Section 3: Microbial Methods
These methods were taken directly from UK Health and Security Office (UKHSA) standard operating […]
Preparation of Luria Broth media (LB): Yeast extract (5 g), tryptone (10 g) and sodium chloride (10 g) were dissolved in dH₂O (1 L) then divided into bottles and autoclaved.
Preparation of Luria Broth (LB) agar plates: Agar (6 g) was added to LB (400 mL) and autoclaved. Once cool, the LB agar was poured into sterile petri dishes under sterile conditions and allowed to set. LB plates were stored at 4 °C until use.
Preparation of bacterial plates: Sterile LB agar plates were streaked using Escherichia coli DH10B or USA300 Methicillin-Resistant Staphylococcus aureus then incubated at 37 °C overnight.
Preparation of Inoculum: An initial culture was made up by inoculating LB media (5 mL) with a single colony of bacteria under sterile conditions and incubated at 37 °C with shaking overnight. The following day, overnight bacterial cultures were subcultured into fresh LB medium to a starting OD600 […]
Preparation of 96 well microplate for screening: 20 mM solutions of each compound to be tested were made up using 5 % ethanol. The 1:100 cell suspension (150 µL) was pipetted into the wells and SSA compound solutions (30 µL) were added into each well. The final screening concentration for each compound was 3.3 mM in the well. These were incubated for 20 hours in a plate reader, with optical density readings being taken at 600 nm every 15 minutes. Optical density readings were plotted against time to produce growth curves. […]
individual wells under sterile conditions. Compounds (30 µL) were added to the wells to equal a total volume of 180 µL in the wells. Six repeats of each concentration for each compound were created each plate. The plates were sealed using parafilm, then incubated at 37°C in a microplate reader for 18-25 hours. Optical density readings were taken at 600 nm every 15 min. Data was used to generate […]
Calculation of MIC50: Growth curves were plotted using OD600 optical density readings in Microsoft ® Excel ® 2013. OD600 optical density readings 900 minutes from the start of each of these growth cultures for each concentration of compound were plotted in Origin ® 2015. The resultant curve was normalized and fitted using the Boltzmann fit to define the MIC50 values for each compound.

[3] = mouse, % SSA recovered from the assay after 4 hours
[4] = Table S3, conversion of the mM values of Table 1, after 900 mins
[5] = n = 3, 0.5 McFarland standard, after 900 min, number in bracket = efficacy rank

| SMILES | Plasma stability ([1]; mouse, 4 h, 2 µM) | recovery at 4 h, 2 µM [1, 3] | PPB class ([1]; mouse, plasma) | fraction unbound at 4 h, 2 µM ([1]; mouse, plasma) | MIC50 [2, 4] | inhibition at 3300 µM ([2]; after 900 min) | initial antimicrobial screening outcome, E. coli ([2]; Table S3, screening at 3.3 mM) | Recovery (PPB assay) ([1]; % SSA recovered from the assay after 4 hours) | PPB ([1]; mouse, plasma, 4 h, 2 µM) | MIC50 [2, 5] |
| --- | --- | --- | --- | --- | --- | --- | --- | --- | --- | --- |
| O=C(NCS(=O)(=O)O)Nc1ccc(C(F)(F)F)cc1 [SSA 1] | 94% | 91% | low | 0.25 | 2080 µg/mL |  |  |  |  |  |
| O=C(NCS(=O)(=O)O)Nc1ccccc1-c1nc2ccccc2s1 [SSA 5] | 92% | 109% | very high | < 0.003 | 2160 µg/mL |  |  |  |  |  |
| Cc1ccc2nc(NC(=O)NCS(=O)(=O)O)sc2c1 [SSA 7] |  |  |  |  |  | < 10% | Fail |  |  |  |
| Cc1ccc2nc(-c3ccc(NC(=S)NCS(=O)(=O)O)cc3)sc2c1 [SSA 12] |  |  |  |  |  | < 10% |  |  |  |  |
| O=C(NCCCS(=O)(=O)O)Nc1ccc(C(F)(F)F)cc1 [SSA 2] | 93% | 79% |  | 0.166 | 840 µg/mL |  |  |  |  |  |
| O=C(NCS(=O)(=O)O)Nc1ccc(C(F)(F)F)cc1 [SSA 3] | 89% |  |  |  |  |  |  | 80% | 73.8% |  |
| O=C(O)CNC(=O)Nc1ccc(C(F)(F)F)cc1 [SSA 4] | 96% | 86% | low | 0.328 | 630 µg/mL |  |  |  |  |  |
| Cc1ccc2nc(-c3ccc(NC(=O)NCCCS(=O)(=O)O)cc3)sc2c1 [SSA 10] | 89% | 94% | very high | 0.007 | 750 µg/mL |  |  |  |  | 1160 µM |
| Cc1ccc2nc(-c3ccc(NC(=O)NCCC(=O)O)cc3)sc2c1 [SSA 9] |  |  |  |  | 1370 µg/mL |  |  |  |  | 2160 µM |
| Cc1ccc2nc(-c3ccc(NC(=O)NCS(=O)(=O)O)cc3)sc2c1 [SSA 6] | 90% | 101% | very high | 0.007 | 3110 µg/mL |  |  |  |  |  |
| O=C(NCS(=O)(=O)O)Nc1ccc(-c2nc3ccccc3s2)cc1 [SSA 8] |  |  |  |  | 2210 µg/mL |  |  |  |  | 3660 µM |
